{"source": "patent US20140309210A1", "about": "“INDAZOLE COMPOUNDS, COMPOSITIONS AND METHODS OF USE THEREOF” (Genentech, Inc., priority 2011, published 2014)"}
{"target": "T1, purified ITK (Invitrogen PV3875) (Homo sapiens, UniProt Q08881)", "T1 construct": "purchased Invitrogen PV3875", "T1 sequence (Q08881 1-620)": "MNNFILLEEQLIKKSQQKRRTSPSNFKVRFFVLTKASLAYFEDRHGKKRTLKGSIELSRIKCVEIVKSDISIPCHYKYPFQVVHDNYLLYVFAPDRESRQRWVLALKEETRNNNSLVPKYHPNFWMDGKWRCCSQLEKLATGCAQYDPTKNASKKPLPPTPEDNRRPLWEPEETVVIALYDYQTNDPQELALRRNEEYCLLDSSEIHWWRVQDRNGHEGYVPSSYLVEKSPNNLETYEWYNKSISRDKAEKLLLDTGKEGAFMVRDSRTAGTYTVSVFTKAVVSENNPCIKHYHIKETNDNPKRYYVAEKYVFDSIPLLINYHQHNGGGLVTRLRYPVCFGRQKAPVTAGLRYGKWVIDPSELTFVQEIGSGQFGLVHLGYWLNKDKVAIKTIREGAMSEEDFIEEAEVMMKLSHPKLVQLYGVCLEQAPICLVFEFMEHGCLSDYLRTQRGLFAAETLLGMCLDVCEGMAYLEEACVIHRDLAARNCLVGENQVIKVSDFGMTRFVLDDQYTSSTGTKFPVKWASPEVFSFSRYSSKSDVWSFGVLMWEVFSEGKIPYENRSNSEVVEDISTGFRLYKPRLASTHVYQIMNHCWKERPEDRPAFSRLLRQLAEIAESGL", "test": "ITK peptide phosphorylation assay (Caliper LabChip or LCMS)", "type": "biochemical", "conditions": "Table 1, Examples 141-279", "method_in_brief": "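Purified human ITK peptide phosphorylation, quenched with EDTA (50 mM final) for Caliper LabChip separation or TCA (5% v/v final) for UPLC-MS/MS MRM quantification. Ki derived via Morrison tight-binding equation, corrected for competitive inhibition using ATP concentration relative to Km,app.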", "units": {"Ki": "nM"}}
{"molecule": "O=C(Nc1cnn([C@@H](CO)c2cscn2)c1)c1n[nH]c2cc(-c3cn[nH]c3)ccc12", "note": "[Example 177, N-[1-[(1R)-2-hydroxy-1-thiazol-4-yl-ethyl]pyrazol-4-yl]-6-(1H-pyrazol-4-yl)-1H-indazole-3-carboxamide]", "Ki": 7.5}
{"molecule": "O=C(Nc1cnn([C@H](CO)c2cscn2)c1)c1n[nH]c2cc(-c3cn[nH]c3)ccc12", "note": "[Example 178, N-[1-[(1S)-2-hydroxy-1-thiazol-4-yl-ethyl]pyrazol-4-yl]-6-(1H-pyrazol-4-yl)-1H-indazole-3-carboxamide]", "Ki": 6.19}
{"molecule": "N#Cc1cccc(Cn2cc(NC(=O)c3n[nH]c4cc(C5CCNCC5)ccc34)cn2)c1", "note": "[Example 179, N-[1-[(3-cyanophenyl)meth-yl]pyrazol-4-yl]-6-(4-piperidyl)-1H-indazole-3-carboxamide]", "Ki": 154}
{"molecule": "N#Cc1cccc(Cn2cc(NC(=O)c3n[nH]c4ccc(NC5CCNCC5)cc34)cn2)c1", "note": "[Example 180, N-[1-[(3-cyanophenyl)methyl]pyrazol-4-yl]-5-(4-piperidylamino)-1H-indazole-3-carboxamide]", "Ki": 2.71}
{"molecule": "O=C(Nc1cnn(Cc2ccccc2)c1)c1n[nH]c2cc(-c3cn[nH]c3)ccc12", "note": "[Example 181, N-(1-benzylpyrazol-4-yl)-6-(1H-pyrazol-4-yl)-1H-indazole-3-carboxamide]", "Ki": 1.07}
{"molecule": "N#Cc1cccc(Cn2cc(NC(=O)c3n[nH]c4cc(C5CNC5)ccc34)cn2)c1", "note": "[Example 182, 6-(azetidin-3-yl)-N-[1-[(3-cyanophenyl)meth-yl]pyrazol-4-yl]-1H-indazole-3-carboxamide]", "Ki": 240}
{"molecule": "N#Cc1cccc(Cn2cc(NC(=O)c3n[nH]c4ccc(NC5CCNC5)cc34)cn2)c1", "note": "(stereo not shown) [Example 183, N-[1-[(3-cyanophenyl)meth-yl]pyrazol-4-yl]-5-(pyrrolidin-3-ylamino)-1H-indazole-3-carboxamide]", "Ki": 7.52}
{"molecule": "CN1CCC(Nc2ccc3[nH]nc(C(=O)Nc4cnn(Cc5cccc(C#N)c5)c4)c3c2)CC1", "note": "[Example 184, N-[1-[(3-cyanophenyl)meth-yl]pyrazol-4-yl]-5-[(1-methyl-4-piperidyl)amino]-1H-indazole-3-carboxamide]", "Ki": 1.33}
{"molecule": "O=C(Nc1cnn(C2CCOc3ccccc32)c1)c1n[nH]c2cc(-c3cn[nH]c3)ccc12", "note": "(stereo not shown) [Example 185, N-(1-chroman-4-ylpyrazol-4-yl)-6-(1H-pyrazol-4-yl)-1H-indazole-3-carboxamide]", "Ki": 759}
{"molecule": "CC(CO)c1ccc2[nH]nc(C(=O)Nc3cnn(Cc4cccc(C#N)c4)c3)c2c1", "note": "(stereo not shown) [Example 186, N-[1-[(3-cyanophenyl)meth-yl]pyrazol-4-yl]-5-(2-hydroxy-1-methyl-ethyl)-1H-indazole-3-carboxamide]", "Ki": 22}
{"molecule": "CC(CO)c1ccc2[nH]nc(C(=O)Nc3cnn(Cc4cccc(C#N)c4)c3)c2c1", "note": "(stereo not shown) [Example 187, N-[1-[(3-cyanophenyl)meth-yl]pyrazol-4-yl]-5-(2-hydroxy-1-methyl-ethyl)-1H-indazole-3-carboxamide]", "Ki": 7.8}
{"molecule": "CN1CCC(c2ccc3c(C(=O)Nc4cnn(Cc5cccc(C#N)c5)c4)n[nH]c3c2)C1", "note": "(stereo not shown) [Example 188, N-[1-[(3-cyanophenyl)meth-yl]pyrazol-4-yl]-6-(1-methylpyrrolidin-3-yl)-1H-indazole-3-carboxamide]", "Ki": 1600}
{"molecule": "CNc1cncc(-c2ccc3c(C(=O)Nc4cnn(Cc5ccccc5)c4)n[nH]c3c2)n1", "note": "[Example 189, N-(1-benzylpyrazol-4-yl)-6-[6-(methylamino)py-razin-2-yl]-1H-indazole-3-carboxamide]", "Ki": 24.8}
{"molecule": "CNc1ncc(-c2ccc3c(C(=O)Nc4cnn(Cc5ccccc5)c4)n[nH]c3c2)s1", "note": "[Example 190, N-(1-benzylpyrazol-4-yl)-6-[2-(methylamino)thi-azol-5-yl]-1H-indazole-3-carboxamide]", "Ki": 18.5}
{"molecule": "CN1CC(c2ccc3c(C(=O)Nc4cnn(Cc5cccc(C#N)c5)c4)n[nH]c3c2)C1", "note": "[Example 191, N-[1-[(3-cyanophenyl)meth-yl]pyrazol-4-yl]-6-(1-methylazetidin-3-yl)-1H-indazole-3-carboxamide]", "Ki": 2400}
{"molecule": "CC(C)n1cc(NC(=O)c2n[nH]c3cc(-c4cn[nH]c4)ccc23)cn1", "note": "[Example 192, N-(1-isopropylpyrazol-4-yl)-6-(1H-pyrazol-4-yl)-1H-indazole-3-carboxamide]", "Ki": 10.2}
{"molecule": "N#Cc1cccc(Cn2cc(NC(=O)c3n[nH]c4ccc(C5(CO)CC5)cc34)cn2)c1", "note": "[Example 193, N-[1-[(3-cyanophenyl)meth-yl]pyrazol-4-yl]-5-[1-(hydroxymeth-yl)cyclopropyl]-1H-indazole-3-carboxamide]", "Ki": 26.3}
{"molecule": "N#Cc1cccc(Cn2cc(NC(=O)c3n[nH]c4ccc(NC5CCOCC5)cc34)cn2)c1", "note": "[Example 194, N-[1-[(3-cyanophenyl)meth-yl]pyrazol-4-yl]-5-(tetrahydropyran-4-ylamino)-1H-indazole-3-carboxamide]", "Ki": 106}
{"molecule": "N#Cc1cccc(Cn2cc(NC(=O)c3n[nH]c4ccc(NC5CCCCC5)cc34)cn2)c1", "note": "[Example 195, N-[1-[(3-cyanophenyl)meth-yl]pyrazol-4-yl]-5-(cyclohexylamino)-1H-indazole-3-carboxamide]", "Ki": 42.4}
{"molecule": "Cn1nccc1-c1ccc2c(C(=O)Nc3cnn(Cc4cccc(C#N)c4)c3)n[nH]c2c1", "note": "[Example 196, N-[1-[(3-cyanophenyl)meth-yl]pyrazol-4-yl]-6-(2-methylpyrazol-3-yl)-1H-indazole-3-carboxamide]", "Ki": 354}
{"molecule": "N#Cc1cccc(Cn2cc(NC(=O)c3n[nH]c4cc(-c5cnco5)ccc34)cn2)c1", "note": "[Example 197, N-[1-[(3-cyanophenyl)meth-yl]pyrazol-4-yl]-6-oxazol-5-yl-1H-indazole-3-carboxamide]", "Ki": 2.04}
{"molecule": "Cn1nc(C(F)(F)F)cc1-c1ccc2c(C(=O)Nc3cnn(Cc4cccc(C#N)c4)c3)n[nH]c2c1", "note": "[Example 198, N-[1-[(3-cyanophenyl)meth-yl]pyrazol-4-yl]-6-[2-methyl-5-(trifluorometh-yl)pyrazol-3-yl]-1H-indazole-3-carboxamide]", "Ki": 183}
{"molecule": "Cc1cncc(-c2ccc3c(C(=O)Nc4cnn(Cc5cccc(C#N)c5)c4)n[nH]c3c2)c1", "note": "[Example 199, N-[1-[(3-cyanophenyl)meth-yl]pyrazol-4-yl]-6-(5-methyl-3-pyridyl)-1H-indazole-3-carboxamide]", "Ki": 8.41}
{"molecule": "CN(C)CCC(c1cscn1)n1cc(NC(=O)c2n[nH]c3cc(-c4cn[nH]c4)ccc23)cn1", "note": "(stereo not shown) [Example 200, N-[1-[3-(dimethylamino)-1-thiazol-4-yl-propyl]pyrazol-4-yl]-6-(1H-pyrazol-4-yl)-1H-indazole-3-carboxamide]", "Ki": 0.727}
{"molecule": "CN(C)CCC(c1cscn1)n1cc(NC(=O)c2n[nH]c3cc(-c4cn[nH]c4)ccc23)cn1", "note": "(stereo not shown) [Example 201, N-[1-[3-(dimethylamino)-1-thiazol-4-yl-propyl]pyrazol-4-yl]-6-(1H-pyrazol-4-yl)-1H indazole-3-carboxamide]", "Ki": 2.89}
{"molecule": "N#Cc1cccc(Cn2cc(NC(=O)c3n[nH]c4cc(-c5cncs5)ccc34)cn2)c1", "note": "[Example 202, N-[1-[(3-cyanophenyl)meth-yl]pyrazol-4-yl]-6-thiazol-5-yl-1H-indazole-3-carboxamide]", "Ki": 5.77}
{"molecule": "Cn1ccc(-c2ccc3c(C(=O)Nc4cnn(Cc5cccc(C#N)c5)c4)n[nH]c3c2)n1", "note": "[Example 203, N-[1-[(3-cyanophenyl)meth-yl]pyrazol-4-yl]-6-(1-methylpyrazol-3-yl)-1H-indazole-3-carboxamide]", "Ki": 1100}
{"molecule": "O=C(Nc1cnn(Cc2ccccc2)c1)c1n[nH]c2cc(-c3cnccn3)ccc12", "note": "[Example 204, N-(1-benzyl-1H-pyrazol-4-yl)-6-(pyrazin-2-yl)-1H-indazole-3-carboxamide]", "Ki": 37.8}
{"molecule": "O=C(Nc1cnn(Cc2ccccc2)c1)c1n[nH]c2cc(-c3ccnnc3)ccc12", "note": "[Example 205, N-(1-benzylpyrazol-4-yl)-6-pyridazin-4 yl-1H-indazole-3 carboxamide]", "Ki": 131}
{"molecule": "N#Cc1ccc2c(C(=O)Nc3cnn(Cc4ccccc4)c3)n[nH]c2c1", "note": "[Example 206, N-(1-benzylpyrazol-4-yl)-6-cyano-1H-indazole-3-carboxamide]", "Ki": 129}
{"molecule": "O=C(Nc1cnn(Cc2ccccc2)c1)c1n[nH]c2cc(-c3cncc(Cl)c3)ccc12", "note": "[Example 207, N-(1-benzylpyrazol-4-yl)-6-(5-chloro-3-pyridyl)-1H-indazole-3-carboxamide]", "Ki": 9.39}
{"molecule": "COC1CCN(c2ccc3c(C(=O)Nc4cnn(Cc5cccc(C#N)c5)c4)n[nH]c3c2)C1", "note": "(stereo not shown) [Example 208, N-[1-[(3-cyanophenyl)meth-yl]pyrazol-4-yl]-6-(3-methoxypyrrolidin-1-yl)-1H-indazole-3-carboxamide]", "Ki": 458}
{"molecule": "O=C(Nc1cnn(Cc2ccccc2)c1)c1n[nH]c2cc(-c3cnc4c(c3)CCCO4)ccc12", "note": "[Example 209, N-(1-benzylpyrazol-4-yl)-6-(3,4-dihydro-2H-pyrano[2,3-b]pyridin-6-yl)-1H-indazole-3-carboxamide]", "Ki": 66.2}
{"molecule": "O=C(Nc1cnn(Cc2ccccc2)c1)c1n[nH]c2cc(-c3cncc(F)c3)ccc12", "note": "[Example 210, N-(1-benzylpyrazol-4-yl)-6-(5-fluoro-3-pyridyl)-1H-indazole-3-carboxamide]", "Ki": 5}
